Results on 3 compounds are retold here after patent US10307353B2, “1-phenylmono- or -polyhydroxypropane compounds, compositions and cosmetic uses thereof” (L'OREAL, priority 2015, dated 2019).

This assay has as its system AMPK (phospho-AMPK Thr-172). As to the kind of experiment: Level of expression of p-AMPK (Thr-172) in normal human epidermal keratinocytes, Western blotting. It is filed as cell-based. To be noted: for p-AMPK/AMPK ratio relative to the control (100%): 18 hours incubation; for p-AMPK/GAPDH ratio relative to the control (100%): 48 hours incubation. On the procedure:
Normal human epidermal keratinocytes are seeded at 180 000 cells per well and cultured in SFM culture medium (supplier Gibco) supplemented with 0.25 ng/ml EGF, 25 μg/ml of pituitary extract and 25 μg/ml gentamicin, up to confluence, and incubated in a humid oven at 37° C. and 5% CO2. The culture medium was then replaced with test medium (SFM (Gibco) supplemented with 25 μg/ml gentamicin) containing or not containing (control) the test compounds, or the references (AICAR—(5-amino-4-imidazole carboxamide riboside) at 500 μM). The cells were then incubated for 18 or 48 hours. The level of expression of p-AMPK was analyzed by Western blotting. At the end of the incubation, the proteins were extracted and quantified and then separated by electrophoresis on 10% polyacrylamide gel and then transferred onto a nitrocellulose membrane. […] Between each successive revelation, the antibodies were detached using a “stripping” buffer. The images were acquired with a Fuji LAS 3000 chemiluminescence scanner (Fujifilm) and the densitometric analyses were performed using the Multigauge software (Fujifilm). An increase in the phosphorylated form of AMPK (active form of the enzyme) relative to the control is evaluated in this test. Results Expressed in the form of the p-AMPK/GAPDH ratio relative to the control (100%): […]
A general note: In western blotting, separated proteins are transferred to a membrane and probed.

On to `NC(=O)c1ncn([C@@H]2O[C@H](CO)[C@@H](O)[C@H]2O)c1N` [AICAR, 5-amino-4-imidazole carboxamide riboside, reference compound], for which, for the setting “500 μM”, the “p-AMPK/AMPK ratio relative to the control (100%)” value is on record as 177% ± 31% and the “p-AMPK/GAPDH ratio relative to the control (100%)” value amounted to 279 ± 96%.
`COc1cc(CC(C)O)ccc1O` (stereo not drawn) [Compound 1]: the “p-AMPK/AMPK ratio relative to the control (100%)” value (500 μM) is 132% ± 11%.
Turning to `COc1cc(CC(O)CO)ccc1O` (stereo not drawn) [Compound 5], the “p-AMPK/GAPDH ratio relative to the control (100%)” value reads like this: (1 μM) 116 ± 17%; (10 μM) 149 ± 25%; (100 μM) 136 ± 14%.
